Measured values from patent US20210206763A1, “Anti-Proliferative Agents” (FEMTOGENIX LIMITED, priority 2015, published 2021).

Legend:
[1] = system: NFκB Transcription Factor duplex DNA sequence; experiment: FRET DNA melting assay with transcription factor duplex DNA; format: binding; settings: 1 μM ligand concentration; 24 hours incubation
Method: (§1) Oligonucleotide sequences used for the FRET assays were purchased from Eurogentec, Southampton, UK: TAMRA (6-carboxytetramethylrhodamine) and FAM (6-carboxyfluorescein) are acceptor and donor fluorophores, respectively. From 20 μM stock solutions, 400 nM solutions in FRET buffer (optimized as 50 mM potassium, 50 mM cacodylate, pH 7.4) were prepared prior to use. The oligonucleotides were annealed through heating the samples to 90° C. for 10 mins followed by cooling to room temperature and storing at this temperature for 5 h. Dilutions from the initial 5 mM DMSO stock solution were performed using FRET buffer. Annealed DNA (50 μL) and sample solution (50 μL) were added to each well of a 96-well plate (MJ Research, Waltham, Mass.), and processed in a DNA Engine Opticon (MJ Research). Fluorescence readings were taken at intervals of 0.5° C. over the range 30-100° C., with a constant temperature maintained for 30 seconds prior to each reading. Incident radiation of 450-495 nm was used, with detection at 515-545 nm. The raw data were imported into the program Origin (Version 7.0, OringinLab Corp.), and the graphs were smoothed using a 10-point running average, and then normalized. Determination of melting temperatures was based on values at the maxima of the first derivative of the smoothed melting curves using a script. The difference between the melting temperature of each sample and that of the blank (ΔTm) was used for comparative purposes.

[2] = system: AP-1 Transcription Factor duplex DNA sequence; experiment: as above; format: binding; settings: 1 μM ligand concentration; 24 hours incubation
Method: as §1

[3] = system: NFκB transcription factor binding sequence (duplex oligonucleotide); experiment: DNA adduct formation by HPLC; settings: 4:1 molar ratio ligand:oligonucleotide, room temperature
Method: Interaction of C8-linked PDD monomers with duplex transcription factor consensus sequence was studied with an HPLC assay utilizing a X-bridge MS C18 2.5 μM OST column (2.3×50 mm) and a gradient of 40% acetonitrile/water and 100 mM TEAB ([…])/water as mobile phase with a flow rate of 0.5 mL/min and UV detection at 254 nm. A 4:1 molar ratio of ligand:oligonucleotide was used, with each single-stranded oligonucleotide dissolved in 1 M ammonium acetate to form stock solutions of 1 mM. The oligonucleotides were initially annealed by heating their 1 mM solutions to 70° C. for 10 mins followed by gradual cooling over 8 hours and storage overnight at −20° C. Working solutions of oligonucleotides of 25 μM were then prepared by diluting the annealed stock solutions with 100 mM ammonium acetate. The ligands were dissolved in DMSO to form a stock solution of 10 mM which was stored at −20° C. for no longer than four months. Working solutions of the drug of 100 μM were prepared by diluting the stock solution with 100 mM ammonium acetate. The working solutions of the ligands were added to the working solution the oligonucleotides at RT, and the mixture incubated for different time intervals at room temperature.

[4] = system: MDA MB 231 (Triple negative breast cancer cell line); experiment: MTT cytotoxicity assay of C8-linked PDD monomers; format: cell-based; settings: Homo sapiens, 72 hours exposure
Method: (§2) MDA MB231 (triple negative human breast cancer) was obtained from the American Type Culture Collection. The cell-line was maintained in monolayer culture in 75 cm^2 flasks (TPP, Switzerland) under a humidified 5% CO2 atmosphere at 37° C. The MDA MB231 cell line was maintained in high glucose DMEM (4.5 g/l; Invitrogen), foetal bovine serum (10%, Biosera UK), non-essential amino acids (ix; Invitrogen), L-glutamine (2 mM; Invitrogen) and Penicillin-Streptomycin (1% v/v, Invitrogen). The HeLa cell line was maintained in Dulbecco's Modified Eagles Media (DMEM; Invitrogen) supplemented with foetal bovine serum (10% v/v; Invitrogen), L-glutamine (2 mM; Invitrogen), non-essential amino acids (lx; Invitrogen) and Penicillin-Streptomycin (1% v/v, Invitrogen). For passaging, cells were washed with PBS (GIBCO 14040, Invitrogen, UK), incubated with trypsine (GIBCO 25300, Invitrogen, UK), and re-seeded into fresh medium. For seeding, cells were counted using a Neubauer haemocytometer (Assistant, Germany) by microscopy (Nikon, USA) on a non-adherent suspension of cells that were washed in PBS, trypsinised, centrifuged at 8° C. at 8000 rpm for 5 min and re-suspended in fresh medium.
(§3) The cells were grown in normal cell culture conditions at 37° C. under a 5% CO2 humidified atmosphere using appropriate medium. The cell count was adjusted to 10^5 cells/ml and 5,000-20,000 cells were added per well depending on the cell line. The cells were incubated for 24 hours and 1 μl of the appropriate inhibitor concentrations were added to the wells in triplicates. After 72 h of continuous exposure to each compound, the cytotoxicity was determined using the 3-(4,5-Dimethylthiazol-2-yl)-2,5-diphenyltetrazolium bromide (MTT) (Lancaster Synthesis Ltd, UK) colorimetric assay.^[34 Absorbance was quantified by spectrophotometry at λ=570 nm (Envision Plate Reader, PerkinElmer, USA). IC50 values were calculated by a dose-response analysis using the GraphPad Prism® software.

[5] = system: HeLa (Cervical cancer cell line); experiment: MTT cytotoxicity assay of C8-linked PDD monomers; format: cell-based; settings: Homo sapiens, 72 hours exposure
Method: as §2, §3

[6] = system: fluorescently labelled DNA duplex 5′-AAAAAAAGAAATTTAAA-3′; experiment: FRET DNA melting of fluorescently labelled duplex; format: binding; settings: fragments of 41, FIG. 12B
Source text: FRET DNA melting studies were undertaken on a fluorescently labelled duplex DNA sequence reacted with 41 and fragmented forms of the molecule (i.e, using intermediates 106, […] and 148). The sequence (FIG. 10) was designed to provide additional evidence that 41 can effectively stabilise a particular DNA sequence derived through the Footprinting studies (i.e., XGXWWWW where X represents any base, G represents guanine and W indicates adenine or thymine). […] The labels were fluorescein (F) and dabcyl (Q).
Oligonucleotides were obtained from ATDbio (Southampton, UK) in lyophilised form. They were labelled with a fluorophore molecule (F=fluorescein) at the 5′-end and a quencher molecule (Q=dabcyl) at the 3′-end of the complementary strand. Each oligonucleotide was dissolved in distilled H2O to form stock solutions of 100 μM. Working solutions of 5 μM were prepared by diluting the stock solution with distilled H2O.
The following buffers were used: 250 mM phosphate buffer pH 7.4 (consisting of sodium dihydrogen phosphate and sodium phosphate diluted in distilled H2O) and 5 M sodium chloride buffer. All buffers and distilled H2O were filtered through a 0.2 VIM filter prior to use.
For the FRET experiments stock solutions of 41, 106, 107 and 148 were prepared by dissolving the compounds in DMSO to give a concentration of 10 mM. From this stock solution, working solutions of the desired concentration were prepared by diluting the stock solution with distilled H2O.
The reaction mixture was comprised of 4 μL of 250 mM phosphate buffer (final concentration of 50 mM), 4 μL flourophor and 4 μL quencher molecule of the appropriate oligonucleotide for a final concentration of 0.2 μM, 4 μL 5 M sodium chloride (final concentration of 1 M NaCl), and 4 μL of distilled H2O. […] This mixture was analysed without prior annealing.
Fluorescence melting profiles were measured using a Roche LightCycler using a total reaction volume of 20 μL. […] Annealing steps and melting steps were all recorded and changes in fluorescence were measured at 520 nm. […]

[7] = in vivo; cited from earlier work

SMILES | ΔTm NFκB (1st transition) [1] [°C] | ΔTm NFκB (2ND transition) [1] [°C] | ΔTm AP-1 (1st transition) [2] [°C] | ΔTm AP-1 (2ND transition) [2] [°C] | DNA adduct formation (HPLC chromatogram) [3] | IC50 [4] [nM] | IC50 [5] [nM] | DNA stabilisation (FRET melting) [6] | adverse effects in Phase I clinical evaluation [7]
COC(=O)c1cc2cc(NC(=O)c3cc(NC(=O)CCCOc4cc5c(cc4OC)C(=O)N4CCCC[C@H]4C=N5)cn3C)ccc2s1 [Compound 13, Methyl (S)-5-(4-(4-((2-methoxy-12-oxo-6a,7,8,9,10,12-hexa-hydrobenzo[e]pyrido[1,2-a][1,4]diazepin-3-yl)oxy)butanamido)-1-methyl-1H-pyrrole-2-carboxamido)benzo[b]thiophene-2-carboxylate] | 12 | 23 | 11 | 19 | DNA adduct formation | 64 ± 9.6 | 0.6 ± 0.4 | – | –
COC(=O)c1cc2cc(NC(=O)c3nc(NC(=O)CCCOc4cc5c(cc4OC)C(=O)N4CCCC[C@H]4C=N5)cn3C)ccc2s1 [Compound 17, Methyl (S)-5-(4-(4-((2-methoxy-12-oxo-6a,7,8,9,10,12-hexa-hydrobenzo[e]pyrido[1,2-a][1,4]diazepin-3-yl)oxy)butanamido)-1-methyl-1H-imidazole-2-carboxamido)benzo[b]thiophene-2-carboxylate] | 11 | 26 | 13 | 18 | DNA adduct formation | 21 ± 1.8 | 1.2 ± 0.8 | – | –
COC(=O)c1cc(-c2ccc(NC(=O)c3nc(NC(=O)CCCOc4cc5c(cc4OC)C(=O)N4CCCC[C@H]4C=N5)cn3C)cc2)cn1C [Compound 20, Methyl (S)-4-(4-(4-(4-((2-methoxy-12-oxo-6a,7,8,9,10,12-hexahydrobenzo[e]pyrido[1,2-a][1,4]diazepin-3-yl)oxy)butanamido)-1-methyl-1H-imidazole-2-carboxamido)phenyl)-1-methyl-1H-pyrrole-2-carboxylate] | 9 | 12 | 8 | 13 | DNA adduct formation | 0.3 ± 0.22 | 0.14 ± 0.09 | – | –
COC(=O)c1cc(-c2ccc(NC(=O)c3cc(NC(=O)CCCOc4cc5c(cc4OC)C(=O)N4CCCC[C@H]4C=N5)cn3C)cc2)cn1C [Compound 24, Methyl (S)-4-(4-(4-(4-((2-methoxy-12-oxo-6a,7,8,9,10,12-hexahydrobenzo[e]pyrido[1,2-a][1,4]diazepin-3-yl)oxy)butanamido)-1-methyl-1H-pyrrole-2-carboxamido)phenyl)-1-methyl-1H-pyrrole-2-carboxylate] | 10 | 14 | 9 | 15 | DNA adduct formation | 0.8 ± 0.66 | 1 ± 0.12 | – | –
COc1cc2c(cc1O)N=C[C@@H]1CCCCN1C2=O [Compound 106, (S)-3-Hydroxy-2-methoxy-7,8,9,10-tetrahydrobenzo[e]pyrido[1,2-a][1,4]diazepin-12(6aH)-one] | – | – | – | – | – | – | – | little DNA stabilisation | –
COc1cc2c(cc1OCCCC(=O)O)N=C[C@@H]1CCCCN1C2=O [Compound 107, (S)-4-((2-Methoxy-12-oxo-6a,7,8,9,10,12-hexahydrobenzo[e]pyrido[1,2-a][1,4]diazepin-3-yl)oxy)butanoic acid] | – | – | – | – | – | – | – | little DNA stabilisation | –
Cn1cc(N)cc1C(=O)Nc1ccc(-c2cc(C(=O)Nc3ccc(N)cc3)n(C)c2)cc1 [Compound 148, 4-Amino-N-(4-(5-((4-aminophenyl)carbamoyl)-1-methyl-1H-pyrrol-3-yl)phenyl)-1-methyl-1H-pyrrole-2-carboxamide] | – | – | – | – | – | – | – | little DNA stabilisation | –
C=C1C[C@H]2C=Nc3cc(OCCCOc4cc5c(cc4OC)C(=O)N4CC(=C)C[C@H]4C=N5)c(OC)cc3C(=O)N2C1 [SJG-136] | – | – | – | – | – | – | – | – | lower-limb edema and fatigue
